Experimental data reported in patent US9145391B2, “Bipyridylaminopyridines as Syk inhibitors” (Merck Sharp & Dohme Corp., priority 2011, dated 2015).

Legend:
Syk kinase [1] = target: T1, Syk kinase (Homo sapiens (Human), UniProt P43405); settings: dosed intranasally, allergic rhinitis; cited from earlier work
Syk kinase [2] = target: T1, Syk kinase; settings: phase II clinical trial, allergic rhinitis; cited from earlier work
[3] = target: recombinant human GST-Syk (Homo sapiens (Human), UniProt P43405); experiment: Homogeneous Time-Resolved Fluorescence (HTRF) assay for the recombinant human Syk enzyme; format: biochemical; settings: recombinant human GST-Syk 5 pM, ATP 25 μM, read-out: rhSyk IC50
Outline: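 HTRF read-out of phosphorylation of a biotinylated Syk-site peptide (250 nM final) by a GST-tagged human Syk fusion. Reaction initiated with ATP at 25 μM final plus 5 mM magnesium final. Compound potency taken from inhibition of human Syk activity.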

[4] = Hydrolysis assay: hydrolysis of prodrug to parent species in human liver S9; format: in vitro ADME; settings: human liver S9 1 mg protein/mL, prodrug 10 μM, 37° C., pH 7.4, 1 mM NADPH; for half-life at 10 μM: read-out: Half-life (min) of the conversion of the prodrug to the carboxylic acid
Protocol: Hydrolysis Assay: Analysis of Hydrolysis of Prodrug to Parent Species
The stability of 8 different prodrugs was investigated in human liver S9 microsomes. Incubations of prodrugs (10 μM) with liver S9 (1 mg protein/mL) were carried out at 37° C. in a phosphate buffer, pH 7.4, containing 1 mM NADPH. Control incubations contained BSA (1.1 mg/mL) instead of liver S9 microsomes. Aliquots were removed at 0, 5, 15, 30, 60 and 120 min, treated with 4 volumes of acetonitrile containing 2% formic acid and an internal standard, and centrifuged. The supernatants were analyzed by LC-MS/MS for prodrug disappearance and appearance of active drug. The half-life of the prodrug was calculated from the % prodrug remaining at different time points calculated from on the peak area ratio relative to t=0. The amount of active drug generated at the different time points was determined using a standard curve.

| Compound | PGD2 change (Syk kinase [1]) | clinical safety (Syk kinase [1]) | efficacy versus placebo (Syk kinase [2]) | IC50 [3] [nM] | half-life at 10 μM [4] [min] | Half-life (min) of the conversion of the prodrug to the carboxylic acid [4] [min] |
| --- | --- | --- | --- | --- | --- | --- |
| Oc1cccc(Nc2ncc(F)c(Nc3cccc(O)c3)n2)c1 [Example R112] | statistically significant decrease in PGD2 | safe across a range of indicators | lack of efficacy versus placebo | – | – | – |
| COC(=O)[C@H]1CC[C@H](C(C)(O)c2ccc(-c3cc(C)cc(Nc4cc(C(F)F)ccn4)n3)cn2)CC1 (single isomer, unassigned) [Example 22, Methyl trans-4-[(1R or 1S)-1-(6-{[4-(difluoromethyl)pyridin-2-yl]amino}-4-methyl-2,3′-bipyridin-6′-yl)-1-hydroxyethyl]cyclohexanecarboxylate] | – | – | – | 8 | 4.6 | – |
| CCCCCCCOC(=O)[C@H]1CC[C@H](C(C)(O)c2ccc(-c3cc(C)cc(Nc4cc(C(F)F)ccn4)n3)cn2)CC1 (single isomer, unassigned) [Example 19-10, heptyl trans-4-[(1R or 1S)-1-(6-{[4-(difluoromethyl)pyridin-2-yl]amino}-4-methyl-2,3′-bipyridin-6′-yl)-1-hydroxyethyl] cyclohexanecarboxylate] | – | – | – | 670 | – | 40 |
| CC(=O)OCOC(=O)[C@H]1CC[C@H](C(C)(O)c2ccc(-c3cc(C)cc(Nc4cc(C(F)F)ccn4)n3)cn2)CC1 (single isomer, unassigned) [Example 21, (Acetyloxy)methyl trans-4-[(1R or 1S)-1-(6-{[4-(difluoromethyl)pyridin-2-yl]amino}-4-methyl-2,3′-bipyridin-6′-yl)-1-hydroxyethyl]cyclohexanecarboxylate] | – | – | – | 11 | 3.3 | – |
| COCCOC(=O)[C@H]1CC[C@H](C(C)(O)c2ccc(-c3cc(C)cc(Nc4cc(C(F)F)ccn4)n3)cn2)CC1 (single isomer, unassigned) [Example 19-15, 2-methoxyethyl trans-4-[(1R or 1S)-1-(6-{[4-(difluoromethyl)pyridin-2-yl]amino}-4-methyl-2,3′-bipyridin-6′-yl)-1-hydroxyethyl] cyclohexanecarboxylate] | – | – | – | 6.4 | – | 3.9 |
| Cc1cc(Nc2cc(C(F)F)ccn2)nc(-c2ccc(C(C)(O)[C@H]3CC[C@H](C(=O)OCCN4CCOCC4)CC3)nc2)c1 (single isomer, unassigned) [Example 19-19, 2-{morpholin-4-yl)ethyl trans-4-[(1R or 1S)-1-(6-{[4-(difluoromethyl)pyridin-2-yl]amino}-4-methyl-2,3′-bipyridin-6′-yl)-1-hydroxyethyl] cyclohexanecarboxylate] | – | – | – | 8.7 | – | 15 |
| CCOC(=O)[C@H]1CC[C@H](C(C)(O)c2ccc(-c3cc(C)cc(Nc4cc(C(F)F)ccn4)n3)cn2)CC1 (single isomer, unassigned) [Example 17, Ethyl trans-4-[(1R or 1S)-1-(6-{[4-(difluoromethyl)pyridin-2-yl]amino}-4-methyl-2,3′-bipyridin-6′-yl)-1-hydroxyethyl]cyclohexanecarboxylate] | – | – | – | 18 | 5.6 | – |
| CCOC(=O)OCOC(=O)[C@H]1CC[C@H](C(C)(O)c2ccc(-c3cc(C)cc(Nc4cc(C(F)F)ccn4)n3)cn2)CC1 (single isomer, unassigned) [Example 20, [(Ethoxycarbonyl)oxy]methyl trans-4-[(1R or 1S)-1-(6-{[4-(difluoromethyl)pyridin-2-yl]amino}-4-methyl-2,3′-bipyridin-6′-yl)-1-hydroxyethyl]cyclohexanecarboxylate] | – | – | – | 14 | 3 | – |
